Experimental data from the supplement of paper PMC10307832.

How the values were obtained:
Assay in all cases: relative viability (nuclei count vs DMSO), 5 days (fraction); higher = more cells survive
Serdemetan + Pictilisib = compound: c1ccc2c(CCNc3ccc(Nc4ccncc4)cc3)c[nH]c2c1 [Serdemetan] + CS(=O)(=O)N1CCN(Cc2cc3nc(-c4cccc5[nH]ncc45)nc(N4CCOCC4)c3s2)CC1 [Pictilisib] (partner 1 µM)
Summary of the method: (§1)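 Cells from lung cancer lines were seeded into 1536-well plates and, one day later, dosed by pin tool. Treatments were either a single drug or a fixed dose of an anchor drug with five library-drug doses (not always all listed) in √10 steps. After 5 days, nuclei were stained in a one-step fixation (final 0.05% Triton X-100, 1% formaldehyde, 1 ug/ml Hoechst) and counted on 4× images, and relative viability is the treated-to-vehicle nuclei ratio, as the median of duplicate plates.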

Serdemetan + Olaparib = compound: c1ccc2c(CCNc3ccc(Nc4ccncc4)cc3)c[nH]c2c1 [Serdemetan] + O=C(c1cc(Cc2n[nH]c(=O)c3ccccc23)ccc1F)N1CCN(C(=O)C2CC2)CC1 [Olaparib] (partner 8 µM)
Summary of the method: as §1

Serdemetan + Palbociclib = compound: c1ccc2c(CCNc3ccc(Nc4ccncc4)cc3)c[nH]c2c1 [Serdemetan] + CC(=O)c1c(C)c2cnc(Nc3ccc(N4CCNCC4)cn3)nc2n(C2CCCC2)c1=O [Palbociclib] (partner 0.5 µM)
Summary of the method: as §1

Selisistat + Palbociclib = compound: C1CC(C2=C(C1)C3=C(N2)C=CC(=C3)Cl)C(=O)N [Selisistat] + CC(=O)c1c(C)c2cnc(Nc3ccc(N4CCNCC4)cn3)nc2n(C2CCCC2)c1=O [Palbociclib] (partner 0.5 µM)
Summary of the method: as §1

Cell Line	relative viability (Serdemetan + Pictilisib; first compound 0.04 µM)	relative viability (Serdemetan + Pictilisib; first compound 0.4 µM)	relative viability (Serdemetan + Pictilisib; first compound 1.265 µM)	relative viability (Serdemetan + Pictilisib; first compound 4 µM)	relative viability (Serdemetan + Olaparib; first compound 0.04 µM)	relative viability (Serdemetan + Olaparib; first compound 0.1265 µM)	relative viability (Serdemetan + Olaparib; first compound 0.4 µM)	relative viability (Serdemetan + Olaparib; first compound 1.265 µM)	relative viability (Serdemetan + Olaparib; first compound 4 µM)	relative viability (Serdemetan + Palbociclib; first compound 0.04 µM)	relative viability (Serdemetan + Palbociclib; first compound 0.1265 µM)	relative viability (Serdemetan + Palbociclib; first compound 0.4 µM)	relative viability (Serdemetan + Palbociclib; first compound 1.265 µM)	relative viability (Serdemetan + Palbociclib; first compound 4 µM)	relative viability (Selisistat + Palbociclib; first compound 0.4 µM)	relative viability (Selisistat + Palbociclib; first compound 1.265 µM)	relative viability (Selisistat + Palbociclib; first compound 4 µM)	relative viability (Selisistat + Palbociclib; first compound 12.65 µM)	relative viability (Selisistat + Palbociclib; first compound 40 µM)	relative viability (Serdemetan + Pictilisib; first compound 0.1265 µM)
NCI-H1734	0.466	0.354	0.163	0.242	0.327	0.183	0.171	0.114	0.149	0.296	0.23	0.229	0.166	0.212	0.366	0.37	0.353	0.379	0.369	–
NCI-H1755	0.428	0.455	0.307	0.296	0.867	0.769	0.648	0.493	0.448	0.45	0.42	0.445	0.344	0.39	0.457	0.465	0.428	0.485	0.439	0.458
NCI-H1792	0.278	0.283	0.242	0.145	0.405	0.336	0.231	0.0956	0.116	0.661	0.7	0.596	0.395	0.56	0.659	0.606	–	0.581	0.596	0.274
NCI-H1793	0.302	0.31	0.163	0.199	0.814	0.73	0.547	0.316	0.285	0.355	0.325	0.308	0.242	0.271	0.338	0.304	–	0.34	0.328	0.415
NCI-H1915	0.966	0.921	0.811	0.985	0.238	0.242	0.223	0.208	0.24	0.483	0.52	0.482	0.434	0.39	0.612	0.515	0.466	0.554	0.587	1.01
NCI-H1944	0.354	0.34	–	0.338	0.385	0.393	0.286	0.228	0.288	0.364	0.355	0.31	0.253	0.221	0.351	0.285	0.276	0.326	0.351	0.383
NCI-H1975	0.302	0.317	0.338	0.31	0.843	0.754	0.742	0.748	0.75	0.691	0.662	0.434	0.331	0.783	0.585	0.585	0.38	0.478	0.523	0.355
NCI-H1993	0.815	0.809	–	0.761	0.982	0.969	1.18	1.01	0.778	0.64	0.603	0.736	0.699	0.569	0.703	0.67	–	0.623	0.676	0.884
